The values that follow come from paper PMC12385234, “In Vitro Inhibitory Effects and Molecular Mechanism of Four Theaflavins on Isozymes of CYP450 and UGTs” (Foods, 2025).

Read-outs that look alike come from different tables or passages of the source. Where only a bound is given, the exact number is not on record here.

The target in assay [1] is CYP2C19 (Homo sapiens, UniProt P33261). The experiment in a line: Inhibition of CYP2C19 (S-mephenytoin) in pooled human liver microsomes.
Description: (§1) The final reaction volume was 150 µL, and the reaction was carried out in a 96-well deep-well cell plate made of polypropylene. The reaction was conducted at a temperature of 37 °C. To ensure that the reaction time was within the linear range of the metabolic rate and to avoid data distortion caused by substrate depletion or product feedback inhibition, the reaction time for each substrate varied as follows: the incubation time for detecting CYP3A4 enzyme activity was 5 min; the incubation time for detecting CYP2B6, CYP2C8, CYP2C9, and CYP2D6 enzyme activities was 10 min each; the incubation time for detecting CYP1A2 and CYP2C19 enzyme activities was 30 min each.
(§2) The AB SCIEX 4000/5000 HPLC-MS/MS system, integrated with the HTS PAL autosampler (CTC Analytics AG, Basel, Switzerland) and Shimadzu LC 20 series HPLC (Shimadzu Corporation, Kyoto, Japan), was used for analysis. […]
(§3) In accordance with the DDI guidelines from the NMPA and the US FDA, the inhibition of CYP1A2, 2B6, 2C8, 2C9, 2C19, 2D6, and 3A4 activity by the test article was assessed. The inhibitory effect was determined by measuring the reduction in metabolite formation of respective probe substrates, expressed as relative activity compared to the negative control (NC), using the following formula: Relative activity (% of NC) = (formation of metabolites in test or PC/formation in NC) × 100. […]
In assay [2] the target is CYP2C9 (Homo sapiens, UniProt P11712). Kind of assay: Inhibition of CYP2C9 (diclofenac) in pooled human liver microsomes.
Sequence of CYP2C9 (P11712 whole entry): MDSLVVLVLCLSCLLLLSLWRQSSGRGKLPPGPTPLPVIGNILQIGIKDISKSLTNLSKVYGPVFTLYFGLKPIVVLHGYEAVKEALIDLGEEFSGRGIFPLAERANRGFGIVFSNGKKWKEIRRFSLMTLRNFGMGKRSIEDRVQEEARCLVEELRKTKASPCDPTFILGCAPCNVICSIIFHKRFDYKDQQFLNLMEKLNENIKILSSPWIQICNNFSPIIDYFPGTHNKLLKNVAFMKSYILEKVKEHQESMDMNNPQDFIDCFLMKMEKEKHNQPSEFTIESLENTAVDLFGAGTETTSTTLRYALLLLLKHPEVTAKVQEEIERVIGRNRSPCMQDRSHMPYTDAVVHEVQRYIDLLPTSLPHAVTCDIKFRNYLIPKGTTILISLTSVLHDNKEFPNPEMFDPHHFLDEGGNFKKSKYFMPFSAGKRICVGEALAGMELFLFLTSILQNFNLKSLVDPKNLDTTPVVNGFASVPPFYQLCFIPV
Description: (§4) The virological tests for AIDS, hepatitis B, and hepatitis C of the donors were negative. The final reaction volume was 150 µL, and the reaction was carried out in a 96-well deep-well cell plate made of polypropylene. The reaction was conducted at a temperature of 37 °C. […]
(§5) The AB SCIEX 4000/5000 HPLC-MS/MS system, integrated with the HTS PAL autosampler (CTC Analytics AG, Basel, Switzerland) and Shimadzu LC 20 series HPLC (Shimadzu Corporation, Kyoto, Japan), was used for analysis. […] Quantification was achieved by calculating the area under the curve (AUC) for each MRM transition. […]
(§6) In accordance with the DDI guidelines from the NMPA and the US FDA, the inhibition of CYP1A2, 2B6, 2C8, 2C9, 2C19, 2D6, and 3A4 activity by the test article was assessed. The inhibitory effect was determined by measuring the reduction in metabolite formation of respective probe substrates, expressed as relative activity compared to the negative control (NC), using the following formula: Relative activity (% of NC) = (formation of metabolites in test or PC/formation in NC) × 100. […] Data processing: When the calculated value is less than 100, three significant digits are retained. When the calculated value is greater than or equal to 100, only the integer part is retained.
Assay [3] addresses T1, UGT1A3 (Homo sapiens, UniProt P35503).
T1 sequence (P35503 29-534): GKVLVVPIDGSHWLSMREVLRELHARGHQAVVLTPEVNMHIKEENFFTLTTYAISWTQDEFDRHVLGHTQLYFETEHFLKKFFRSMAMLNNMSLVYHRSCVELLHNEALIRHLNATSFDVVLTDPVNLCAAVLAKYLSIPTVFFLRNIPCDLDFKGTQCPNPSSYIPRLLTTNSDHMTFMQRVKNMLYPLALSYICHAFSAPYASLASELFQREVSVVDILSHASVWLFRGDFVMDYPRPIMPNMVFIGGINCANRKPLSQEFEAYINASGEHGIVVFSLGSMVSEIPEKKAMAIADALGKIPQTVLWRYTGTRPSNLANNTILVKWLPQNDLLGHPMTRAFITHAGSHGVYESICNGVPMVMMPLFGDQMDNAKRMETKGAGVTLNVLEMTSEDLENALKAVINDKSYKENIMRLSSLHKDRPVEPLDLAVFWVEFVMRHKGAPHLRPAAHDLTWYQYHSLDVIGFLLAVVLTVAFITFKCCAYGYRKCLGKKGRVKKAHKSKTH
Kind of assay: Inhibition of UGT1A3-mediated beta-estradiol glucuronidation, human recombinant UGT.
Description: (§7) These enzymes were then incubated with each compound (Table 1). Subsequently, the corresponding substrates for each UGT isoenzyme were added. The inhibitory effects of the respective products were evaluated by measuring their generation. […] Each incubation mixture was prepared in triplicate, containing 0.25 mg/mL recombinant enzyme, 5 mM UDPGA, and 10 mM propylthiouracil, among other conditions.

For assay [4], the target named is T2, UGT1A4 (Homo sapiens, UniProt P22310).
T2 sequence (P22310 29-534): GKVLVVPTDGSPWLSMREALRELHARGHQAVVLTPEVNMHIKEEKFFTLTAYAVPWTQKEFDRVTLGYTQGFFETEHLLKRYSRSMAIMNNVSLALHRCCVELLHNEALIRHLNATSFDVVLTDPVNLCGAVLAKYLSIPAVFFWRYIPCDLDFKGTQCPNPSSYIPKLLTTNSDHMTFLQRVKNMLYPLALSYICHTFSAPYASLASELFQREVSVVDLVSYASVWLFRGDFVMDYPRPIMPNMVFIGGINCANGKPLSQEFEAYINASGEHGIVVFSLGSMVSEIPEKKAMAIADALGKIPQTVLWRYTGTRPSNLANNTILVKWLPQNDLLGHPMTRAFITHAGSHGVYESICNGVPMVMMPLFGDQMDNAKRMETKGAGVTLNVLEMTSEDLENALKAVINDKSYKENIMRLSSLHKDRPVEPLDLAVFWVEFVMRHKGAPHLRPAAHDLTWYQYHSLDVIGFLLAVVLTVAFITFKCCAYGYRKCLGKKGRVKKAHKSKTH
Kind of assay: Inhibition of UGT1A4-catalyzed trifluoperazine glucuronidation, human recombinant UGT.
Description: as §7

Assay [5] has as its target T3, UGT2B15 (Homo sapiens, UniProt P54855).
T3 sequence (P54855 24-530): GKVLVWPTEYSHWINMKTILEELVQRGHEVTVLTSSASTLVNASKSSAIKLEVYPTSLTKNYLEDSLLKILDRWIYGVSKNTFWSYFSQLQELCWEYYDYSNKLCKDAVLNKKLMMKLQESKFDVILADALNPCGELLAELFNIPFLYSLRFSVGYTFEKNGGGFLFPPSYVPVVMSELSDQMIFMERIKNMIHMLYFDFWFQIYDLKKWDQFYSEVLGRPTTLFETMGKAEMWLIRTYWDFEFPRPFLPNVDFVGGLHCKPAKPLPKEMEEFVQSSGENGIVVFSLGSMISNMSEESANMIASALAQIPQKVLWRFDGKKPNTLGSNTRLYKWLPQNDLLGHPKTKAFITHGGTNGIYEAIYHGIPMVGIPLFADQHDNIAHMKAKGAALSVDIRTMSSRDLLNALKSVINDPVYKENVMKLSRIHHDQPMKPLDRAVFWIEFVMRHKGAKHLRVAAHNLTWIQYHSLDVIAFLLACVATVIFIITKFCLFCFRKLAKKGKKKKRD
The experiment in a line: Inhibition of UGT2B15-catalyzed 4-trifluoromethyl-7-hydroxycoumarin glucuronidation, human recombinant UGT.
Description: as §7

Assay [6] has as its target T4, UGT1A1 (Homo sapiens, UniProt P22309).
T4 sequence (P22309 26-533): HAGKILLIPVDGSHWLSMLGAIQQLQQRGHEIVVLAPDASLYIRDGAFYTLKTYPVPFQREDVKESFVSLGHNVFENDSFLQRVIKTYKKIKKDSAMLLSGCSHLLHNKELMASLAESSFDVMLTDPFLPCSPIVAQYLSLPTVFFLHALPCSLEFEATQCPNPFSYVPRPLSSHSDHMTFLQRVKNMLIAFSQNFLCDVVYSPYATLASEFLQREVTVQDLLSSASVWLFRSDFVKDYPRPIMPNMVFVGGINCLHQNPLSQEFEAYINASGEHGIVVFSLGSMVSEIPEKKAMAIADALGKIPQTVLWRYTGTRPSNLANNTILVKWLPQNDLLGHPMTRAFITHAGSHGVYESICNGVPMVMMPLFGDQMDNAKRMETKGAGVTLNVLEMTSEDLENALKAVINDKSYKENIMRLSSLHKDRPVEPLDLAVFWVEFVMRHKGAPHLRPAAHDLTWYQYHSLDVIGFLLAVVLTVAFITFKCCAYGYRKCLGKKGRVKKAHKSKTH
Kind of assay: Inhibition of UGT1A1-catalyzed beta-estradiol glucuronidation, human recombinant UGT.
Description: as §7

Assay [7] addresses CYP3A4 (Homo sapiens, UniProt P08684). Kind of assay: Inhibition of CYP3A4 (testosterone, midazolam) in pooled human liver microsomes.
Description: as §4, §5, §6
Assay [8] has as its target T5, CYP2C8 (Homo sapiens, UniProt P10632).
T5 sequence (P10632 1-490): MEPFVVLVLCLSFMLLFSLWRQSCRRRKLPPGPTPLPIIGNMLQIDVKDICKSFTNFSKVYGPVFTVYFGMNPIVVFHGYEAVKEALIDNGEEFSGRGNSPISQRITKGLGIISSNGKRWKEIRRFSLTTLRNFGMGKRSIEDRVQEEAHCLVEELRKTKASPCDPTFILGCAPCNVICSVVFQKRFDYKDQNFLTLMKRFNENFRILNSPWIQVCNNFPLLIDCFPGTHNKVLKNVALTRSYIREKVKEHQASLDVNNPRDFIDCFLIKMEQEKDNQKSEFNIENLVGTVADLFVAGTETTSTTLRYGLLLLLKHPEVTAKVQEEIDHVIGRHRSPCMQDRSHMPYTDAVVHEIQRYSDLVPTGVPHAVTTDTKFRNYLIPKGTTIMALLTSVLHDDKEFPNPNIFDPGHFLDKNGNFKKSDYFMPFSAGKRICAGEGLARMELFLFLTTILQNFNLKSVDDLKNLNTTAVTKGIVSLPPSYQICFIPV
The experiment in a line: Inhibition of CYP2C8-mediated amodiaquine metabolism in pooled human liver microsomes. On the technique in general: Microsomes from liver hold many membrane-bound enzymes, among them those of drug oxidation.
Description: as §4, §5, §6

Assay [9] addresses T6, CYP1A2 (Homo sapiens, UniProt P05177).
T6 sequence (P05177 1-516): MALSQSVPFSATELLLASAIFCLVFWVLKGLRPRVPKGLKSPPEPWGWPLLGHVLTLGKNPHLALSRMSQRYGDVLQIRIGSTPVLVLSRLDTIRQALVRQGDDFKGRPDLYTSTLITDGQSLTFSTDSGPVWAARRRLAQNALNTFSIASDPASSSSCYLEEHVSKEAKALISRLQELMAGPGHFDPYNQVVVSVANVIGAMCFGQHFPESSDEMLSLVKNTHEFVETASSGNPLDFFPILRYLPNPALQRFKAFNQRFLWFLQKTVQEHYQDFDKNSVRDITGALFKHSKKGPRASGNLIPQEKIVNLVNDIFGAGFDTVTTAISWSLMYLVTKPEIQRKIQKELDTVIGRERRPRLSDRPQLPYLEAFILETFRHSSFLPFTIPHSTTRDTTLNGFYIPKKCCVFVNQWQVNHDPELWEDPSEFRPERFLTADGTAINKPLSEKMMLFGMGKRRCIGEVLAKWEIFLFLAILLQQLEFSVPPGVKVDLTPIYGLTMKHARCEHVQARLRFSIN
Kind of assay: Inhibition of CYP1A2-catalyzed phenacetin metabolism in pooled human liver microsomes.
Description: as §4, §5, §6

For assay [10], the target named is T7, CYP2B6 (Homo sapiens, UniProt P20813).
T7 sequence (P20813 1-491): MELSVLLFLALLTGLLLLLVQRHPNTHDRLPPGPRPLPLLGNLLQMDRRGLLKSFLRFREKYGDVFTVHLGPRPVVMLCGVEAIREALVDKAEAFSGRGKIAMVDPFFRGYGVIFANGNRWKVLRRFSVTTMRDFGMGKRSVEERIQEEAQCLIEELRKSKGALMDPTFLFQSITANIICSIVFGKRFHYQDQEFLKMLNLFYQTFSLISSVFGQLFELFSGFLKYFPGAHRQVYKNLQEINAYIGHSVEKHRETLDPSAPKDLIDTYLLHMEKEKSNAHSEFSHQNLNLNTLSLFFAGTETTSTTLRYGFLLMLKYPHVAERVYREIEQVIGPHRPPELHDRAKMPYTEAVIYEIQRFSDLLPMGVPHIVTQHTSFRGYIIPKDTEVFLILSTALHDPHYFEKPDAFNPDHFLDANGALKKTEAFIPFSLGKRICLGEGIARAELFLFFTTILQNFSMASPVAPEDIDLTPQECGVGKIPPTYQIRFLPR
Kind of assay: Inhibition of CYP2B6 (bupropion) in pooled human liver microsomes.
Description: as §4, §5, §6

Assay [11] addresses CYP2D6 (Homo sapiens, UniProt P10635). Kind of assay: Inhibition of CYP2D6 (dextromethorphan) in pooled human liver microsomes.
Description: as §1, §2, §3
Assay [12] concerns UGT1A1. The settings on record: cited from earlier work.
In assay [13] the test system is UGT1A9. The settings on record: cited from earlier work.

One may read the IC50 as the concentration that gives 50% inhibition.

Sequence of CYP3A4 (P08684 whole entry): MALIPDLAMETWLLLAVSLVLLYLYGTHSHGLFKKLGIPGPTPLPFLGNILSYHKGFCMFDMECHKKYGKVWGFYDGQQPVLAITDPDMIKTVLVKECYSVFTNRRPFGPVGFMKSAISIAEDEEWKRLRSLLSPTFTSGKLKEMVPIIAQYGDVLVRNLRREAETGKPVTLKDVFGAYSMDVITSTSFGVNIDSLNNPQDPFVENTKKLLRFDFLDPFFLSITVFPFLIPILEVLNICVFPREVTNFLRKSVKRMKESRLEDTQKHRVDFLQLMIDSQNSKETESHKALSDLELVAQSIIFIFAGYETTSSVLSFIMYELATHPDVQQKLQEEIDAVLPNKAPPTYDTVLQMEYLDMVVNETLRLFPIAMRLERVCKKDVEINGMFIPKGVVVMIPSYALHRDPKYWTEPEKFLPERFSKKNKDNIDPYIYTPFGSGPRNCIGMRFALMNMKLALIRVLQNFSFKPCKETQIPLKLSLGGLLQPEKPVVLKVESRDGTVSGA
Sequence of CYP2D6 (P10635 whole entry): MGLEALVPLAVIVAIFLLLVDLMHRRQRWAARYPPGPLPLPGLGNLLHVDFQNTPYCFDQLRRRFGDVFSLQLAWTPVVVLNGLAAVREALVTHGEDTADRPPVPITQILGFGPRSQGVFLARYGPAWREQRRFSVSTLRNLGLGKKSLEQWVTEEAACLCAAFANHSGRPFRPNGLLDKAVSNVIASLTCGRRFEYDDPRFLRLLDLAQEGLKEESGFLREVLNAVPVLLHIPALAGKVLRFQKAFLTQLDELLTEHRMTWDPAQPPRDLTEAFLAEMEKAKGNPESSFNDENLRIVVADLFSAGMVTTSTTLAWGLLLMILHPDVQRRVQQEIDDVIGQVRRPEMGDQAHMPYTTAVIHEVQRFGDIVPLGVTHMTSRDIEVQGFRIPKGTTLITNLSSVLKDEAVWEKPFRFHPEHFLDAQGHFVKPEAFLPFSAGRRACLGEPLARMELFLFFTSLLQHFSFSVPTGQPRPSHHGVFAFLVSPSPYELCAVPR
Sequence of CYP2C19 (P33261 whole entry): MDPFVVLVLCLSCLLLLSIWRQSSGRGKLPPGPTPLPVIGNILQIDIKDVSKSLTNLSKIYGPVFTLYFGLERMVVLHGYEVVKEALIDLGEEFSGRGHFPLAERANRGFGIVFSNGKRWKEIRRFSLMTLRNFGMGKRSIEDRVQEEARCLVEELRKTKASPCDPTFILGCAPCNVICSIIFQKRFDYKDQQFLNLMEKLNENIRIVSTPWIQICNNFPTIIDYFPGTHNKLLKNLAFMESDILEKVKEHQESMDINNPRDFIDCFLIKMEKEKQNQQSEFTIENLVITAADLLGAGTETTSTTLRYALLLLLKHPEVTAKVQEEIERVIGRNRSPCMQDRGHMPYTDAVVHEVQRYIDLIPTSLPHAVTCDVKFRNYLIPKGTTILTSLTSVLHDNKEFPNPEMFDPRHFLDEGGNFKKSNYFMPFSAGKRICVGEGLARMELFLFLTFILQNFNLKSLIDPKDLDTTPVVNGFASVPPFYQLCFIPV

On to `O=c1c(O)cc([C@H]2Oc3cc(O)cc(O)c3C[C@H]2O)cc2c([C@H]3Oc4cc(O)cc(O)c4C[C@H]3O)cc(O)c(O)c12` [Theaflavin, theaflavin], for which the IC50 was more than 20 µM in assay [1]; more than 20 µM in assay [2]; more than 20 µM in assay [3]; more than 20 µM in assay [4]; more than 20 µM in assay [5]; 3.89 µM in [6]. The IC50 in [7] is more than 20 µM; in assay [7] (read-out: IC50, CYP3A4-M, pooled HLMs, probe midazolam), more than 20 µM; in assay [8] it was more than 20 µM; in [9], more than 20 µM; in [10] it was more than 20 µM; in [11], more than 20 µM.

Consider `O=c1c(O)c(-c2ccc(O)c(O)c2)oc2cc(O)cc(O)c12` [quercetin], for which the “Inhibition of UGT1A1 (in words)” value in assay [12] was “strong inhibition”.

As for (-)-epigallocatechin-3-gallate [EGCG], the “Inhibition of UGT1A1 (in words)” value in assay [12] is “moderately inhibit”. Moreover, the “Inhibition of UGT1A9 (in words)” value in [13] is reported as “moderately inhibit”.
